Experimental data taken from patent US4333938A, “Imino derivatives of 5-aminobenzodioxole-1,3 which are useful as medicaments” (Laboratoires Sarget, priority 1979, dated 1982).
Where “and” joins values, the source holds several entries; their conditions need not be identical. Identical values can stand only once.

How the values were obtained:
[1] = oral toxicity (mortality) in the mouse; settings: in vivo, Swiss mice
Procedure: The percentages of mortality produced by the compounds of this invention when administered orally to Swiss mice are shown in Table 1. The animals, free from specific pathogenic organisms were housed in an air conditioned room for 24 to 48 hours before the start of the experiment. They were separated into groups of 5 males and 5 females. The materials were administered to animals which had been fasted for 24 hours by means of a gastric tube in suspension in a 6% thickened julep using a volume equivalent to 0.1 ml per 10 g of body weight. […] They remained under observation for two weeks before being sacrificed and autopsied.

phenylbenzoquinone (PBQ) = test: analgesic activity, phenylbenzoquinone (PBQ) challenge; assay type: in vivo; settings: male Swiss mouse, oral
Procedure: The analgesic activity was determined in the male Swiss mouse using phenylbenzoquinone (PBQ) as the challenging agent (variation of the method of Siegmund et al, Proc. Soc. Exp. Biol. Med. […], 95, 729-31). […] The ED50 was determined by the method of Lichfield and Wilcoxon.

carageenan-induced edema = test: inhibition of carrageenan-induced edema; assay type: in vivo, male Wistar rat; settings: oral
Procedure: The inflammation is produced in the male Wistar rat by injection of 0.1 ml of a 0.5% suspension of carageenan in physiological serum, into the muscular fascia of the metatarsal region of the hind foot of the animal. The test substance is administered orally at the same time as the carageenan or 30 or 60 min before carageenan. The edema is measured by plethysmometry three hours after the adminstration of the carrageenan.

[2] = system: edema produced by serotonin; test: inhibition of serotonin-induced edema; assay type: in vivo, Wistar rat; settings: oral, 30 minutes before serotonin
Procedure: In the Wistar rat inflammation is induced by intrapedal injection of 0.1 ml of a 0.02% solution of serotonin in physiological serum. The test substance is administered orally 30 minutes before the serotonin and the edema is measured by plethysmometry one hour after its release.

cotton pellet granulomas = test: inhibition of cotton pellet granulomas; assay type: in vivo, male Sprague-Dawley rats; settings: oral, daily for 10 days
Procedure: Two cotton pellets weighing 70 mg were implanted under the back skin of male Sprague-Dawley rats anesthetized with ether. Starting the next day, the compound was administered orally daily for 10 days. The rats were sacrificed and the pellets were removed and weighed before and after drying at 50° C. for 24 hours. The weights used were those obtained after deduction of the weight of the implants. The average of the quantities so calculated was determined for each group and compared to the averages of the control group.

stomachs = test: ulcerogenic activity; assay type: in vivo, female Wistar rat; settings: 150 mg/kg daily
Procedure: The ulcerogenic activity was determined in the female Wistar rat using a variation of the procedure described by J. M. Lwoff, J. Pharmacol. 1971, 3, 1, 81-3. The test substance was administered daily for 3 days to the animals maintained on a aqueous diet. The stomachs were removed after 1, 2, and 3 days of treatment and the ulcerations were classified from 0 to 4. The ulceration index is calculated for each group of animals as the product (average of the classes x the percentage of animals afflicted), while distinguishing acute ulcerations from ulcers which were in the process of healing.

blood sugar level = test: antidiabetic activity, blood sugar level in streptozotocin hyperglycemic rats; assay type: in vivo, Female rats; set-up: key: NS: the difference between the blood sugar level in the treated animals and the control animals is not significant; the difference is significant by Student's test at p≤0.05; settings: oral
Procedure: Female rats weighing 180-200 grams were given an intraperitoneal dose on day J0 of 100 mg/kg of streptozotocin in a 0.05 M citrate buffer at a pH of 4.5 calculated as 0.5 ml per 100 g of body weight. On day J2 hyperglycemic animals were selected by determining the blood sugar level by the orthotoludine method in a stream continuously removed from the retroorbital sinus. […] On day J3, without previous fasting, the selected animals received the treatment. This consisted of oral administration of the test compound in a 6% aqueous suspension of gum arabic at a volume of 0.5 ml per 100 g of body weight.
The animals were sacrificed one, two, or four hours after the treatment and their blood sugar levels were determined. Each group of animals was compared to a control group of animals which received only the suspension of gum arabic. Metformin was the substance chosen as the control.
The results are given in Table 8 which indicates the percentage of decrease in the blood sugar level produced by the treatment.

solubility in water = assay type: physicochemical
[3] = 50 mg/kg, treatment 1 h before sacrificing
[4] = 50 mg/kg, treatment 2 h before sacrificing
[5] = 50 mg/kg, treatment 4 h before sacrificing
[6] = 100 mg/kg, treatment 1 h before sacrificing
[7] = 100 mg/kg, treatment 2 h before sacrificing
[8] = 100 mg/kg, treatment 4 h before sacrificing
[9] = 200 mg/kg, treatment 1 h before sacrificing
[10] = 200 mg/kg, treatment 2 h before sacrificing
[11] = 200 mg/kg, treatment 4 h before sacrificing

Compound `Cc1ccc(C=Nc2ccc3c(c2)OCO3)s1` [Example 2, N-(5-methyl-2-thienylidene)-5-aminobenzodioxole-1,3] has a mortality at 336 h ([1]; 750 mg/kg) of 10%, a mortality at 336 h ([1]; 1000 mg/kg) of 20% and a mortality at 336 h ([1]; 1250 mg/kg) of 0%. The mortality at 336 h ([1]; 1500 mg/kg) was 60%, the “% analgesic activity” value (phenylbenzoquinone (PBQ); 100 mg/kg) was 19% and the “% analgesic activity” value (phenylbenzoquinone (PBQ); 200 mg/kg) was 49%. For the same compound, the “% analgesic activity” value (phenylbenzoquinone (PBQ); 250 mg/kg) was 51%, the “% analgesic activity” value (phenylbenzoquinone (PBQ); 300 mg/kg) was 40% and the “% inhibiting activity on carrageenan-induced edema” value (“% inhibiting activity” for short) (carageenan-induced edema; To - 30, 75 mg/kg) was 21%. For the same compound, the “% inhibiting activity” value (carageenan-induced edema; To - 30, 150 mg/kg) was 47%, the “% inhibiting activity” value (carageenan-induced edema; To - 30, 300 mg/kg) was 61% and the “% inhibiting activity” value (carageenan-induced edema; To - 60, 75 mg/kg) was 15%. The “% inhibiting activity” value (carageenan-induced edema; To - 60, 150 mg/kg) was 26%, the “% inhibiting activity” value (carageenan-induced edema; To - 60, 225 mg/kg) was 49% and the “% inhibiting activity” value (carageenan-induced edema; To - 60, 300 mg/kg) was 66%. The “% inhibiting activity” value (carageenan-induced edema; at To, 100 mg/kg) was 30%, the “% inhibiting activity” value (carageenan-induced edema; at To, 150 mg/kg) was 64% and the “% inhibiting activity” value (carageenan-induced edema; at To, 200 mg/kg) was 33%. The “% inhibiting activity” value (carageenan-induced edema; at To, 300 mg/kg) was 59%, the “% inhibitory activity on serotonin edema” value ([2]; 100 mg/kg) was 39% and the “% inhibitory activity on serotonin edema” value ([2]; 200 mg/kg) was 29%. For the same compound, the “% inhibitory activity on serotonin edema” value ([2]; 400 mg/kg) was 37%, the “% inhibition with respect to dry pellets” value (cotton pellet granulomas; dose 150) was 5% and the “% inhibition with respect to wet pellets” value (cotton pellet granulomas; dose 150) was 12%. For the same compound, the “% inhibition with respect to dry pellets” value (cotton pellet granulomas; dose 300) was 23%, the “% inhibition with respect to wet pellets” value (cotton pellet granulomas; dose 300) was 17% and the “Ulceration Index, acute” value (stomachs; Day 1) was 6. For the same compound, the “Ulceration Index, healing” value (stomachs; Day 1) was 0, the “Ulceration Index, acute” value (stomachs; Day 2) was 2 and the “Ulceration Index, healing” value (stomachs; Day 2) was 6. For the same compound, the “Ulceration Index, acute” value (stomachs; Day 3) was 48, the “Ulceration Index, healing” value (stomachs; Day 3) was 28 and the “Percentage Decrease in the Blood Sugar” value (blood sugar level; [3]) was 13%. For the same compound, the “Percentage Decrease in the Blood Sugar” value (blood sugar level; [4]) was 22%, the “Percentage Decrease in the Blood Sugar” value (blood sugar level; [5]) was 12% and the “Percentage Decrease in the Blood Sugar” value (blood sugar level; [6]) was 22%. The “Percentage Decrease in the Blood Sugar” value (blood sugar level; [7]) was 32%, the “Percentage Decrease in the Blood Sugar” value (blood sugar level; [8]) was 27% and the “Percentage Decrease in the Blood Sugar” value (blood sugar level; [9]) was 24%. The “Percentage Decrease in the Blood Sugar” value (blood sugar level; [10]) was 35%, the “Percentage Decrease in the Blood Sugar” value (blood sugar level; [11]) was 31% and the solubility in water (solubility in water) was “insoluble in water”.
`C(=Nc1ccc2c(c1)OCO2)c1cccnc1` [Example 3, N-(3-pyridylidene)-5-aminobenzodioxole-1,3] showed a mortality at 336 h ([1]; 500 mg/kg) of 0%, a mortality at 336 h ([1]; 1000 mg/kg) of 10% and a mortality at 336 h ([1]; 2000 mg/kg) of 100%. For the same compound, the “% analgesic activity” value (phenylbenzoquinone (PBQ); 50 mg/kg) was 23%, the “% analgesic activity” value (phenylbenzoquinone (PBQ); 100 mg/kg) was 44% and the “% analgesic activity” value (phenylbenzoquinone (PBQ); 200 mg/kg) was 65%. The “% analgesic activity” value (phenylbenzoquinone (PBQ); 300 mg/kg) was 92%, the ED50 (phenylbenzoquinone (PBQ); method of Lichfield and Wilcoxon) was 110 mg/kg and the “% inhibiting activity” value (carageenan-induced edema; To - 30 (30 min before carrageenan), 25 mg/kg) was 34%. The “% inhibiting activity” value (carageenan-induced edema; To - 30, 50 mg/kg) was 41% and 38%, the “% inhibiting activity” value (carageenan-induced edema; To - 30, 75 mg/kg) was 44% and the “% inhibiting activity” value (carageenan-induced edema; To - 30, 100 mg/kg) was 50% and 41%. For the same compound, the “% inhibiting activity” value (carageenan-induced edema; To - 30, 150 mg/kg) was 53%, the “% inhibiting activity” value (carageenan-induced edema; To - 30, 200 mg/kg) was 66% and the “% inhibiting activity” value (carageenan-induced edema; To - 30, 400 mg/kg) was 67% and 72%. The “% inhibiting activity” value (carageenan-induced edema; To - 60 (60 min before carrageenan), 25 mg/kg) was 25%, the “% inhibiting activity” value (carageenan-induced edema; To - 60, 50 mg/kg) was 42% and the “% inhibiting activity” value (carageenan-induced edema; To - 60, 75 mg/kg) was 40%. For the same compound, the “% inhibiting activity” value (carageenan-induced edema; To - 60, 100 mg/kg) was 39%, the “% inhibiting activity” value (carageenan-induced edema; To - 60, 200 mg/kg) was 58% and the “% inhibiting activity” value (carageenan-induced edema; To - 60, 400 mg/kg) was 69%. For the same compound, the “% inhibiting activity” value (carageenan-induced edema; at To, 100 mg/kg) was 57% and 29%, the “% inhibiting activity” value (carageenan-induced edema; at To, 200 mg/kg) was 28% and 36% and the “% inhibiting activity” value (carageenan-induced edema; at To, 400 mg/kg) was 55% and 39%. The “% inhibitory activity on serotonin edema” value ([2]; 100 mg/kg) was 27%, the “% inhibitory activity on serotonin edema” value ([2]; 200 mg/kg) was 21% and the “% inhibitory activity on serotonin edema” value ([2]; 400 mg/kg) was 26%. For the same compound, the “% inhibition with respect to dry pellets” value (cotton pellet granulomas; dose 150) was 5%, the “% inhibition with respect to wet pellets” value (cotton pellet granulomas; dose 150) was 0% and the “Ulceration Index, acute” value (stomachs; Day 1) was 6. For the same compound, the “Ulceration Index, healing” value (stomachs; Day 1) was 0, the “Ulceration Index, acute” value (stomachs; Day 2) was 20 and the “Ulceration Index, healing” value (stomachs; Day 2) was 6. For the same compound, the “Ulceration Index, acute” value (stomachs; Day 3) was 33, the “Ulceration Index, healing” value (stomachs; Day 3) was 12 and the “Percentage Decrease in the Blood Sugar” value (blood sugar level; [3]) was 16%. The “Percentage Decrease in the Blood Sugar” value (blood sugar level; [4]) was “NS”, the “Percentage Decrease in the Blood Sugar” value (blood sugar level; [5]) was 23% and the “Percentage Decrease in the Blood Sugar” value (blood sugar level; [6]) was “NS”. For the same compound, the “Percentage Decrease in the Blood Sugar” value (blood sugar level; [7]) was 27%, the “Percentage Decrease in the Blood Sugar” value (blood sugar level; [8]) was 29% and the “Percentage Decrease in the Blood Sugar” value (blood sugar level; [9]) was “NS”. The “Percentage Decrease in the Blood Sugar” value (blood sugar level; [10]) was 19%, the “Percentage Decrease in the Blood Sugar” value (blood sugar level; [11]) was 28% and the solubility in water (solubility in water) was “insoluble in water”.
